Like-named read-outs stand apart in the source and are kept apart here.
Tests used:
[1] = test system: +SA mammary epithelial cells; test: MTT assay of +SA cells (antiproliferative activity); format: cell-based, mouse; conditions: for antiproliferative activity against +SA mammary tumor cells (in words): described from FIG. 32 / text; for IC50: 24 hours treatment, read-out: IC50 antiproliferative activity against +SA mammary epithelial cells
Description: The antiproliferative activities of Compounds 3-44 against the highly metastatic malignant +SA mammary epithelial cells were evaluated by MTT assay. Materials for the assay were purchased from Sigma Chemical Company (St. Louis, Mo.) unless otherwise stated. The highly malignant +SA mouse mammary epithelial cell line was serially passaged at subconfluent cell density. The +SA mammary tumor cell line was derived from an adenocarcinoma that developed spontaneously in a BALB/c female mouse. +SA cells were maintained in serum-free defined medium consisting of Dulbecco's modified Eagle's medium (DMEM)/F12 containing 5 mg/mL bovine serum albumin (BSA), 10 […], 100 U/mL soybean trypsin inhibitor, 100 U/mL penicillin G, 0.1 mg/mL streptomycin, […], and 10 ng/mL epidermal growth factor. For subculturing, cells were rinsed twice with sterile Ca2+ and Mg2+-free phosphate buffered saline (PBS) and incubated in 0.05% trypsin containing 0.025% EDTA in PBS for 5 min at 37° C. The released cells were centrifuged, resuspended in fresh media and counted using hemocytometer. A stock solution of the compounds was prepared in DMSO. Once dissolved, this solution was added to a small volume of sterile 10% BSA in water and incubated overnight at 37° C. This solution conjugated to BSA was used to prepare various concentrations (0-40 μM) of tocotrienol analogs. DMSO was added to all treatment media such that the final DMSO concentration was the same in all treatment groups within a given experiment and was always less than 0.1%. For cytotoxic studies, cells were seeded at a density of 5×10^4 cells/well (+SA cells) or 1×10^5 cells/well (CL-S1 cells) (6 wells/group) in 24-well culture plates and allowed to grow in their respective control media. After 3 days incubation period (approximately 70% confluency), cells were divided equally into various treatment groups and exposed to their respective treatments for a 24 hours incubation period. Following the 24 hours treatment period, cell viability was measured using the MTT assay.
+SA Mammary epithelial cell viable number was determined by a 3-(4,5-dimethylthiazol-2yl)-2,5-diphenyl tetrazolium bromide (MTT) colorimetric assay. On the assay day, treatment medium was replaced with fresh control medium containing 0.42 mg/mL MTT, and the cells in 24-well plates were incubated at 37° C. for 4 hours. Afterward, the medium was removed, and the MTT crystals were dissolved in isopropyl alcohol (1 mL/well). The optical density of each sample was read at 570 nm on a microplate reader (SpectraCount, Packard BioScience Company), against a blank prepared from cell-free cultures. The number of cells/well was calculated against a standard curve prepared by plating various concentrations of cells, as determined by hemocytometer, at the start of each experiment.
Differences among the various treatment groups in +SA cell cytotoxic studies were determined by analysis of variance (ANOVA) followed by Dunnett's t-test. The difference of P<0.05 was considered to be statistically significant as compared with vehicle-treated controls unless separately described. Linear regression analysis of treatment effects on viable cell number in growth and cytotoxicity studies was used to determine the 50% growth inhibition concentration (IC50) for individual treatments.

[2] = test system: MCF7 human breast cancer cell line; test: MTT assay of MCF7 cells; format: cell-based; conditions: Homo sapiens, media containing 1% fetal bovine serum
Description: (§1) MDA-MB-231 and MCF7 cells were plated at a density of 8×10^3 cells/well and 10^4 cells/well in 96-well culture plates, respectively. The compounds were fed in serum free media containing 5% and 1% fetal bovine serum for MDA-MB-231 and MCF7 cells, respectively.

[3] = test system: MDA-MB-231 human breast cancer cell line; test: MTT assay of MDA-MB-231 cells; format: cell-based; conditions: Homo sapiens, media containing 5% fetal bovine serum
Description: as §1

[4] = test system: MDA-MB-231 human breast cancer cells; test: Wound-healing assay (cell migration); format: cell-based
Description: The highly metastatic human breast cancer MDA-MB-231 cells were cultured in RPMI 1640 medium containing 10 mM HEPES, 4 mM L-glutamine, 10% fetal bovine serum, penicillin (100 IU/mL), and streptomycin (50 μg/mL), and grown in a 5% CO2 atmosphere at 37° C. Cells were plated onto sterile 24-well and allowed to recover for a confluent cell monolayer formed in each well (>95% confluence). Wounds were then inflicted to each cell monolayer using a sterile 200 μL pipette tip. Media were removed, cells monolayers were washed twice with PBS, and then fresh media containing test compounds were added to each well. Test compounds were prepared in DMSO at 5 μM concentration and added to the plates, each in triplicate using DMSO as negative control. The incubation was carried out for 24 h under serum-starved conditions, after which media was removed and cells were fixed and stained using a staining composition sold under the trade name Diff Quick (Dade Behring Diagnostics, Aguada, Puerto Rico). The stain comprised a fixative reagent containing 1.8 mg/L triarylmethane dye in methyl alcohol; a first solution of 1 g/L xanthene dye, buffer, and sodium azide (0.01%) as preservative; and a second solution of 1.25 g/L Thiazine dye mixture (0.625 g/L azure A and 0.625 g/L methylene blue) and buffer. The number of cells migrated on the scratched wound were counted under the microscope in three or more randomly selected fields (magnification: 400×). Final results are expressed as mean±SEM per 400× field. The wound-healing assay is a simple method for the study of directional cell migration in vitro.
Compounds were tested for their ability to inhibit the migration of the highly metastatic MDA-MB-231 human breast cancer cells in the wound-healing assay using the procedure described above. Compounds 6, 10, 12, 13, 24, 26, 27, and 29 inhibited the migration of more than 50% of the human breast cancer cells MDA-MB-231 in the wound healing assay at 5 μM dose. […] The antimigratory activity of tocotrienols may be enhanced by a terminal aromatic functionality. The presence of electron withdrawing group, such as nitro in Compound 29, may eliminate the antiproliferative activity yet retain the antimigratory activity of the compound. While the electron donating groups, such as OH and OMe found in Compounds 23 and 26, respectively, retained both antiproliferative and antimigratory activities.
Utilizing similar procedures follow-up testing was conducted on a variety of compounds using a range of compound concentrations. The results of follow-up antimigratory testing are shown in FIG. 35B and Table III below with IC50 values calculated using statistical software.

[5] = test system: MCF 10A non-tumorigenic mammary epithelial cells; test: MTT assay of MCF10A cells; format: cell-based, human; conditions: for IC50: Homo sapiens
Description: MCF 10A (ATCC cat # CRL-10317) normal human non-tumorigenic mammary epithelial cells were maintained in serum-free defined medium consisting of Dulbecco's modified Eagle's medium (DMEM)/F12 containing 5% horse serum, 1% penicillin/streptomycin, 0.5 μg/mL hydrocortisone, 100 ng/mL cholera toxin, 10 μg/mL insulin, and 20 ng/mL epidermal growth factor (rhEGF). For subculturing, cells were rinsed twice with sterile Ca2+ and Mg2+-free phosphate buffered saline (PBS) and incubated in 0.25% trypsin containing 0.025% EDTA in PBS for 5 min at 37° C. The released cells were centrifuged, re-suspended in fresh media and counted using a hemocytometer. For testing, MCF 10A cells were plated at a density of 10×10^4 cells/well. A stock solution of the compounds was prepared in DMSO. DMSO was added to all treatment media such that the final DMSO concentration was the same in all treatment groups within a given experiment and was always less than 0.1%. The compounds were fed in serum free media. MCF10A mammary epithelial cell's viable number was determined by MTT colorimetric assay. […] IC50 values were calculated by non-linear regression using statistical software. The selectivity index indicated in the table represents the IC50 value for the MCF 10A cell line divided by the IC50 value for the +SA cell line.

Row | SMILES | antiproliferative activity against +SA mammary tumor cells (in words) [1] | IC50 ([1]; Mus musculus, +SA cell) [nM] | other results
1 | CC(C)=CCC/C(C)=C/CC/C(C)=C/CC[C@]1(C)CCc2c3c(cc(C)c2O1)OCN(CCCCC(=O)O)C3 [Compound 20, 5-((R)-6,8-dimethyl-8-((3E,7E)-4,8,12-trimethyltrideca-3,7,11-trienyl)-9,10-dihydrochromeno[5,6-e][1,3]oxazin-2(1H,3H,8H)-yl)pentanoic acid] | strong activity but less so than the aforementioned compounds |  | 
2 | CC(C)=CCC/C(C)=C/CC/C(C)=C/CC[C@]1(C)CCc2c(CO)c(O)c(C)c(C)c2O1 [Compound 32, (R)-5-(hydroxymethyl)-2,7,8-trimethyl-2-((3E,7E)-4,8,12-trimethyltrideca-3,7,11-trienyl)chroman-6-ol] |  | 2600 | 
3 | CC(C)=CCC/C(C)=C/CC/C(C)=C/CC[C@]1(C)CCc2c3c(c(C)c(C)c2O1)OCN(CC1CCNCC1)C3 [Compound 16, (R)-5,6,8-trimethyl-2-(piperidin-4-ylmethyl)-8-((3E,7E)-4,8,12-trimethyltrideca-3,7,11-trienyl)-1,2,3,8,9,10-hexahydrochromeno[5,6-e][1,3]oxazine] | strong activity |  | IC50 [2]: > 20000 nM; IC50 [3]: 800 nM
4 | CC(C)=CCC/C(C)=C/CC/C(C)=C/CC[C@]1(C)CCc2c3c(cc(C)c2O1)OCN(C)C3 [Compound 4, (R)-2,6,8-trimethyl-8-((3E,7E)-4,8,12-trimethyltrideca-3,7,11-trienyl)-1,2,3,8,9,10-hexahydrochromeno[5,6-e][1,3]oxazine] |  | 1200 to 2200 | 
5 | CC(C)=CCC/C(C)=C/CC/C(C)=C/CC[C@]1(C)CCc2c3c(cc(C)c2O1)OCN(Cc1cccc([N+](=O)[O-])c1)C3 [Compound 29, (R)-6,8-dimethyl-2-(3-nitrobenzyl)-8-((3E,7E)-4,8,12-trimethyltrideca-3,7,11-trienyl)-1,2,3,8,9,10-hexahydrochromeno[5,6-e][1,3]oxazine] | inactive |  | inhibition at 5 µM ([4]; Homo sapiens, MDA-MB-231, 5 μM dose, 24 h, wound-healing assay): > 50%
6 | CC(C)=CCC/C(C)=C/CC/C(C)=C/CC[C@]1(C)CCc2c(CO)c(O)cc(C)c2O1 [Compound 33, (R)-5-(hydroxymethyl)-2,8-dimethyl-2-((3E,7E)-4,8,12-trimethyltrideca-3,7,11-trienyl)chroman-6-ol] |  | ≥ 6600 | 
7 | COc1ccc(CCN2COc3c(C)c(C)c4c(c3C2)CC[C@@](C)(CC/C=C(\C)CC/C=C(\C)CCC=C(C)C)O4)cc1OC [Compound 23, (R)-2-(3,4-dimethoxyphenethyl)-5,6,8-trimethyl-8-((3E,7E)-4,8,12-trimethyltrideca-3,7,11-trienyl)-1,2,3,8,9,10-hexahydrochromeno[5,6-e][1,3]oxazine] | very high activity |  | IC50 [2]: > 20000 nM; IC50 [3]: > 50000 nM; IC50 ([5]; MCF-10A, MCF10A cells, Table II, non-linear regression, read-out: MCF10A (IC50)): 700 nM; IC50 ([5]; MCF 10A non-tumorigenic cells, Table I, read-out: IC50 MCF 10A): 700 nM; Selectivity index ([5]; IC50 for MCF 10A divided by IC50 for +SA cell line): 0.39
8 | CC(C)=CCC/C(C)=C/CC/C(C)=C/CC[C@]1(C)CCc2cc(O)cc(C)c2O1 [Compound 2, δ-tocotrienol, reference compound] |  |  | IC50 [1]: 3000 nM; IC50 ([4]; MDA-MB-231, wound-healing assay, dose response, read-out: IC50 antimigratory activity): > 40000 nM
9 | CC(C)=CCC/C(C)=C/CC/C(C)=C/CC[C@]1(C)CCc2cc(O)c(CO)c(C)c2O1 [Compound 34, (R)-7-(hydroxymethyl)-2,8-dimethyl-2-((3E,7E)-4,8,12-trimethyltrideca-3,7,11-trienyl)chroman-6-ol] |  | ≥ 6600 | 
10 | CCOC(CCN1COc2c(C)c(C)c3c(c2C1)CC[C@@](C)(CC/C=C(\C)CC/C=C(\C)CCC=C(C)C)O3)OCC [Compound 14, (R)-2-(3,3-diethoxypropyl)-5,6,8-trimethyl-8-((3E,7E)-4,8,12-trimethyltrideca-3,7,11-trienyl)-1,2,3,8,9,10-hexahydrochromeno[5,6-e][1,3]oxazine] | significantly decreased activity |  | 
11 | CC(C)=CCC/C(C)=C/CC/C(C)=C/CC[C@]1(C)CCc2c3c(c(C)c(C)c2O1)OCN(Cc1cccc([N+](=O)[O-])c1)C3 [Compound 28, (R)-5,6,8-trimethyl-2-(3-nitrobenzyl)-8-((3E,7E)-4,8,12-trimethyltrideca-3,7,11-trienyl)-1,2,3,8,9,10-hexahydrochromeno[5,6-e][1,3]oxazine] | significant activity but less so than Compounds 20 |  | 
12 | CC(C)=CCC/C(C)=C/CC/C(C)=C/CC[C@]1(C)CCc2c3c(c(C)c(C)c2O1)OCN(C)C3 [Compound 3, (R)-2,5,6,8-tetramethyl-8-((3E,7E)-4,8,12-trimethyltrideca-3,7,11-trienyl)-1,2,3,8,9,10-hexahydrochromeno[5,6-e][1,3]oxazine] |  | 1200 to 2200 | 

From US9115145B2, “Tocotrienol derivatives and associated methods” (FIRST TECH INTERNATIONAL LIMITED, priority 2011, dated 2015)
